Source: patent US6703198B1, “Methods of diagnosing alagille syndrome” (The University of Washington, priority 1997, dated 2004)
Several values for one entry are separate records, joined by “and”; a condition that tells them apart may be missing. Identical values can stand only once. Entries after “also recorded” stand apart in the source; their conditions may differ. Where no end group is shown, it is not given here.

What was measured:
[1] = test system: full-length Notch1-expressing 32D cells; assay: G-CSF-induced granulocytic differentiation of full-length Notch1-expressing 32D myeloid progenitor clones in the presence of hJAGGED1 peptides; assay type: cell-based, mouse; conditions: 10 μM peptide, 20 ng/ml G-CSF, FIG. 4
Description: The ability of the hJAGGED1 HS-27a human stromal cell line to effect differentiation of hematopoietic progenitors was analyzed using the interleukin-3 (IL-3)-dependent myeloid cell line, 32D. The 32D cell line, which was derived from normal mouse bone marrow, is a heterogeneous cell line with individual cells having characteristics of myeloid cells at various early stages of maturation. 32D cells proliferate as undifferentiated blasts in the presence of IL-3, but differentiate into mature granulocytes when stimulated with granulocyte colony stimulating factor (G-CSF; Valtieri et al. Immunol. 138:3829-3835 (1987), which is incorporated herein by reference), thereby providing a system for analyzing factors that may affect myeloid differentiation.
The HS-27a, HS-23 and HS-5 human stromal cell lines were maintained in RPMI containing 10% FCS as described in Roecklein and Torok-Storb, supra, 1995. 32D cells were maintained in Iscove's Modified Dulbecco's Medium (IMDM) with 10% fetal bovine serum (FBS) and 10% WCM as a source of IL-3. For differentiation experiments, 32D cell lines were harvested in log phase, washed, counted, and replated at constant density (2×10^5 cells/ml, 4 ml/well) in 6-well plates in IMDM, 10% FBS, 0.5% WCM and 20 ng/ml recombinant human G-CSF from Amgen (Thousand Oaks, Calif.). Aliquots of […] were removed daily for analysis and replaced with fresh media. Viable cells were counted, and Wright stained cytospins were evaluated for granulocytic differentiation as follows. […] Criteria for granulocytic differentiation included nuclear segmentation, an increased cytoplasmic to nuclear ratio, and increased eosinophilia and granularity of the cytoplasm. […]
Three peptides corresponding to different regions of the hJAGGED1 molecule were analyzed for their effect on differentiation of Notch1-expressing 32D cells treated with G-CSF. […]
Peptide SEQ ID NO:9 (“J-A”) has the sequence […]. […] Differentiation of 32D cells in the presence of hJAGGED peptides was analyzed as described above. […]

[2] = test system: mouse hematopoietic progenitor cells (Sca-1+ lin-); assay: Number of G-CFU formed from mouse hematopoietic progenitor cells treated with G-CSF and cell culture supernatant; assay type: cell-based; conditions: for Number of CFU-G-CSF, Average: average of samples 1-4, control BHK supernatant about 60
Description: A soluble fragment of hJAGGED1 (SEQ ID NO:7), which contains the extracellular domain of hJAGGED1 including the signal peptide, DSL region, EGF-like repeats and cysteine-rich region, was prepared by amplifying a portion of the hJAGGED1 cDNA with PCR primers 420 (SEQ ID NO:20; […]) and 421 (SEQ ID NO:21; […]). The hJAGGED1 cDNA fragment, corresponding to residues 1 to 1010, was subcloned into expression vector pDX to generate pDX-hJg1.Ex. After transfection into BHK and COS cells, the cell culture supernatant was assayed for the ability to effect the number of G-CFU formed from mouse hematopoietic progenitor cells ([…] lin^−), which were prepared by removing cells that stained with anti-Gr-1, anti-CD4, anti-CD11b, anti-CD2, anti-CD45R and anti-Ter-119 and then positively selecting Sca-1^+ cells with anti-Sca-1.

Row | Substance | differentiation of full-length Notch1-expressing 32D clones in the presence of G-CSF and peptide [1] | Number of CFU-G-CSF, Average ([2]; Sca-1+ lin- cells treated with G-CSF, listed as Supernatant of BHK cells transfected with pDX-hJg1.Ex) | Number of CFU-G-CSF, Average ([2]; Sca-1+ lin- cells treated with G-CSF, listed as supernatant from BHK cells transfected with the hJAGGED1 extracellular domain co) | granulocytic differentiation of mouse hematopoietic progenitor cells ([2]; conclusion from Table 2) | Number of CFU-G-CSF ([2]; individual samples, Sca-1+ lin- cells treated with G-CSF, BHK cell supernatant, listed as Supernatant of BHK cells transfected with pDX-hJg1.Ex)
1 | KRRKPGSHTHSASEDNTTN [peptide SEQ ID NO:11, residues 1096 to 1114 of hJAGGED1, hydrophilic portion of the intracellular domain] | comparable to that observed with G-CSF alone; also recorded: unaffected | – | – | – | –
2 | CRQGCSPKHGSCKLPGDCRCQYG [peptide SEQ ID NO:10, residues 235 to 257 of hJAGGED1, part of EGF-repeat 1 in the extracellular domain] | comparable to that observed with G-CSF alone; also recorded: unaffected | – | – | – | –
3 | hJAGGED1 fragment SEQ ID NO:7: soluble fragment of hJAGGED1, residues 1 to 1010 (extracellular domain), tested as supernatant of transfected BHK cells | – | 24 | about 24 | inhibits granulocytic differentiation | 19 and 34 and 20 and 23
4 | CDDYYYGFGCNKFCRPR (cysteine pairing not given here) [peptide SEQ ID NO:9, 17-mer, residues 188 to 204 of hJAGGED1, portion of the DSL domain] | significantly inhibited | – | – | – | –
